Assay results from paper PMC9144492, “New Screening Protocol for Effective Green Solvents Selection of Benzamide, Salicylamide and Ethenzamide” (Molecules, 2022).

What was measured:
[1] = solid residues analysis after shake-flask (DSC, FTIR-ATR); assay type: physicochemical; conditions: sediments after shake-flask in water and organic solvents, FTIR-ATR and literature
Source text: The equilibrium in the solid-liquid saturated systems is governed not only by the properties of solvents but also by the solid state including polymorphic or pseudopolymorphic transformations as well as solvates formation. […] For this reason, the sediments collected after the shake-flask experiments for water and studied organic solvents were examined using differential scanning calorimetry (DSC) and Fourier transform infrared spectroscopy–attenuated total reflectance (FTIR-ATR) techniques. The detailed characteristics of solid residues were provided in supplementary materials (see Figures S5–S10). In the case of solvate formation or polymorphic transformation, the absorption band shifts on the IR spectra are often related to new hydrogen bonding patterns. In the case of DSC thermograms, new phases can be detected by observing additional signals due to the heat transfer associated with polymorphic transition or pseudo-polymorph transformations. […] This conclusion is in good accord with already reported observation. According to Ouyang et al. (2019) benzamide solid form is not altered in contact with such solvents as water, methanol, ethanol, 1-propanol, isopropanol, 1-butanol, isobutanol, methyl acetate, ethyl acetate, butyl acetate, acetonitrile and acetone. In the case of salicylamide, the only polymorphic transformation observed so far was with the use of high pressure. […]
The solid residues obtained after “shake-flask” procedure were dried on air and used for IR spectrophotometric and DSC measurements. Infrared spectra were recorded using PerkinElmer (Waltham, MA, USA) spectrophotometer equipped with a diamond attenuated total reflection (ATR) device. DSC thermograms were recorded using DSC 6000 Perkin Elmer (Waltham, MA, USA) calorimeter (heating rate: 5 K/min, nitrogen flow: 20 mL/min) calibrated using indium and zinc reference standards provided by the manufacturer.

[2] = shake-flask solubility in aqueous binary mixtures of DMSO, DMF and 4FM; assay type: physicochemical; conditions: aqueous 4FM mixture, 4FM mole fraction 0.6; room temperature (Figure 4)
Protocol: In this study, the “shake-flask” procedure used in the previous studies was applied and it consists of the following steps. First, the mixtures (suspensions) containing saturated solution and undissolved solids were prepared in glass screw test tubes. Then the mixtures were incubated and agitated for 24 h at controlled temperature (298.15, 303.15, 308.15, or 313.15 K) and 60 rpm using Orbital Shaker ES-20/60 (Biosan, Riga, Latvia). At the next step, the temperature was still controlled, however, the agitation was turned off and suspensions were let to settle down for an hour. Then, the supernatant was filtrated using 0.22 μm PTFE syringe membrane filter. Nextly, 0.1 mL of the filtrate was diluted with 2 mL of methanol. The samples prepared in this way were protected against crystallization, as the concentration was low. 0.5 mL of the filtrate was used for density measurements. All equipment including automatic pipette tips, membrane filters, and syringes were preheated at the measurement temperature in order to avoid the solute precipitation. All “shake-flask” experiments were carried out in triplicate. The concentration in the samples was determined spectrophotometrically using the calibration curve method. […] All UV spectra were recorded using an A360 UV-VIS spectrophotometer (AOE Instruments, Shanghai, China).

[3] = COSMO-RS solubility computation; conditions: acetic acid

Row | molar fraction solubility (xS) [2] [molar fraction] | mole fraction error of COSMO-RS computed solubility versus experiment [3] [%] | Compound | phase change of the solid in saturated solutions (polymorph / solvate) [1]
1 |  |  | NC(=O)c1ccccc1 [benzamide] | do not show a tendency to undergo phase changes
2 |  |  | CCOc1ccccc1C(N)=O [ethenzamide] | do not show a tendency to undergo phase changes
3 | 0.379 | −60 | NC(=O)c1ccccc1O [salicylamide] | do not show a tendency to undergo phase changes
